According to publication PMC7481357, “N-terminal Myristoylation Enhanced the Antimicrobial Activity of Antimicrobial Peptide PMAP-36PW” (Frontiers in Cellular and Infection Microbiology, 2020):
“Also recorded” adds a separate entry of the source. Residues, ends and D or L forms follow the SMILES beside them. *: point of attachment. Myristoyl = CCCCCCCCCCCCCC(=O)*

What was measured:
S. aureus ATCC 25923 [1] = format: cell-based, Staphylococcus aureus
Protocol: (§1) The MICs of Myr-36PW in vitro were measured through microdilution in accordance with the Clinical and Laboratory Standards Institute (CLSI, [2020]). The bacterial cells were cultured for 12 h at 37°C in the appropriate medium and then diluted to 1 × 10^6 CFU/mL. Equal volumes (100 μL) of bacterial cell suspension and two-fold serially diluted different concentrations peptides (0.0039–256 μg/mL) were added to each well of the sterile 96-well plate. The samples were incubated for 18 h at 37°C. After incubation, the MICs of the peptides were determined by evaluating the growth based on the OD600 of the cultures.

[2] = system: L. monocytogenes CICC 21634; format: cell-based, Listeria monocytogenes
Protocol: as §1

S. typhimurium SL 1344 = format: cell-based, Salmonella typhimurium
Protocol: as §1

P. aeruginosa GIM 1.551 = format: cell-based, Pseudomonas aeruginosa
Protocol: as §1

S. aureus ATCC 25923 [3] = test: Pneumonia (lung infection) model; format: in vivo, BALB/c mice; details: intranasal 40 μL, 1 μg/μL, once a day for 3 days; for Pathological scores of the lung sections: n = 5; for Bacterial CFU in lung homogenate: reduced vs PBS group P < 0.01, n = 5
Protocol: A pneumonia model in vivo was established as previously reported, with minor modification (Cortés et al., [2002]; Aoki et al., [2009]; Shi et al., [2018]). A total of 120 mice were randomly divided into two experimental models, one was intranasal inoculation of S. aureus ATCC 25923 (8.3 × 10^9 CFU/mL, 50 μL), and the other was intranasal inoculation of P. aeruginosa GIM 1.551 (4.5 × 10^10 CFU/mL, 50 μL). In the S. aureus ATCC 25923 model, 60 mice were divided into the following six groups of 10 mice each: no infection and treatment was used as a blank control, those with intranasal administration of PBS (40 μL) as the negative control group, those administered with benzylpenicillin potassium (40 μL, 1 μg/μL) as the positive control group, and the remaining three corresponded to Myr-36PW (40 μL, 1 μg/μL), PMAP-36PW (40 μL, 1 μg/μL), and PMAP-36 groups (40 μL, 1 μg/μL). The procedure for P. aeruginosa GIM 1.551 model is the same as for S. aureus ATCC 25923 model, except for the use of ampicillin sodium as the positive control. After 4 h post-inoculation, treatment was initiated, once a day for 3 days. The mice were sacrificed 24 h after the treatment. Changes in the appearance of lung tissues were observed, and lung tissues were removed aseptically from the mice. Half of the removed lung tissues were gently fixed in buffered formaldehyde solution for histopathological assessment by hematoxylin and eosin (H&E) staining. Pathological changes were scored to provide individual therapeutic status as described previously (Lei et al., [2018]). The remaining lung tissues were added with 1 mL of PBS, homogenized, and serially diluted. Bacterial CFU counts were determined.
Figure 8 Therapeutic effect for pneumonia by Myr-36PW in vivo. Mice were injected with S. aureus ATCC 25923 or P. aeruginosa GIM 1.551 to form pneumonia, and lungs (n = 5) in each group were collected on day 4 after intranasal bacterial inoculation. (A) Morphological changes of lung tissues. (B) Representative histopathological images of processed lung section with hematoxylin and eosin (H&E) staining. Images are presented at a magnification of 20×. a: inflammatory cell infiltration. b: the alveolar wall is thickened. c: alveolar wall congestion or alveolar hemorrhage. (C,D) Pathological scores of the lung sections. Scoring standard: 1 indicated no pathology, 2 indicated local pulmonary congestion and inflammatory cell infiltration, 3 indicated pulmonary congestion and a large number of inflammatory cell infiltration, affecting <20% of the section, 4 indicated pulmonary congestion and a large number of inflammatory cell infiltration, affecting 20–50% of the section, and 5 indicated pulmonary congestion and a large number of inflammatory cell infiltration, affecting >50% of the section. (E,F) Bacterial CFU in lung homogenate. BP is benzylpenicillin potassium, AS is ampicillin sodium. Data represent the mean ± SD of five individual experiments.

S. aureus ATCC 25923 [4] = test: Peritonitis model; format: in vivo, BALB/c mice; details: intraperitoneal 60 μL, 1 μg/μL, once a day for 3 days; for Liver pathogenic scores: compared with PBS group; for Liver pathogenic scores / Bacterial CFU in liver and spleen homogenate / Spleen pathogenic scores: n = 5
Protocol: The peritonitis model in vivo was generated by intraperitoneally injecting S. aureus ATCC 25923 (2.5 × 10^9 CFU/mL, 140 μL). Sixty mice were randomly divided into six groups of 10 members: those who received no infection and treatment was used as a blank control, those with […] administration of PBS (60 μL) as the negative control group, those administered with benzylpenicillin potassium (60 μL, 1 μg/μL) as the positive control group, and the remaining three groups corresponded to three antimicrobial peptide groups of Myr-36PW (60 μL, 1 μg/μL), PMAP-36PW (60 μL, 1 μg/μL), and PMAP-36 (60 μL, 1 μg/μL). After 4 h post-inoculation, treatment was initiated by intraperitoneal injection once a day for 3 days. The mice were sacrificed 24 h the treatment. Changes in the appearance of anatomical tissues were observed. The liver and spleen tissues were removed aseptically from the mice, and half of these samples were gently fixed in buffered formaldehyde solution for histopathological assessment by hematoxylin and eosin (H&E) staining. Pathological changes were scored to assess individual therapeutic status as described previously (Song et al., [2015]; Lei et al., [2018]). The remaining half of livers and spleens were added with 1 mL of PBS, homogenized, and serially diluted. Bacterial CFU counts were measured.
Figure 9 Therapeutic potency of peritonitis by Myr-36PW in vivo. The livers and spleens (n = 5) in each group were collected on day 4 after the intraperitoneal injection of S. aureus ATCC 25923. (A) Morphological changes in liver and spleen tissues. (B) Representative histopathological images of processed liver and spleen sections with hematoxylin and eosin (H&E) staining. Images are presented at a magnification of 40×. a: central venous hemorrhage. b: the cells fuse into pieces, and the nucleus dissolves and disappears. c: cytoplasmic cavitation. (C,D) Pathological scores of the liver and spleen sections. Scoring standard: 1 indicated no pathology, 2 indicated perivascular infiltrates, 3 indicated perivascular or interstitial infiltrates affecting <20% of the section, 4 indicated perivascular or interstitial infiltrates affecting 20–50% of the section, and 5 indicated perivascular or interstitial infiltrates affecting >50% of the section. (E,F) Bacterial CFU in liver and spleen homogenate. BP is benzylpenicillin potassium. Data represent the mean ± SD of five individual experiments.

| SMILES | MICs of different classes of antibiotics (S. aureus ATCC 25923 [1]; S. aureus ATCC 25923, * indicates resistant (CLSI, 2020)) [µg/mL] | MICs of different classes of antibiotics ([2]; L. monocytogenes CICC 21634, * indicates resistant (CLSI, 2020)) [µg/mL] | MICs of different classes of antibiotics (S. typhimurium SL 1344; S. typhimurium SL 1344, * indicates resistant (CLSI, 2020)) [µg/mL] | MICs of different classes of antibiotics (P. aeruginosa GIM 1.551; P. aeruginosa GIM 1.551, * indicates resistant (CLSI, 2020)) [µg/mL] | Lung histopathology (H&E) (S. aureus ATCC 25923 [3]) | Pathological scores of the lung sections (S. aureus ATCC 25923 [3]) | Bacterial CFU in lung homogenate (S. aureus ATCC 25923 [3]) | Liver and spleen histopathology (H&E) (S. aureus ATCC 25923 [4]) | Liver pathogenic scores (S. aureus ATCC 25923 [4]) | Bacterial CFU in liver and spleen homogenate (S. aureus ATCC 25923 [4]) | Spleen pathogenic scores (S. aureus ATCC 25923 [4]) | MICs (S. aureus ATCC 25923 [1]; ATCC 25923, 18 h) [µg/mL] | MICs ([2]; CICC 21634, 18 h) [µg/mL] | MICs (S. typhimurium SL 1344; SL 1344, 18 h) [µg/mL] | MICs (P. aeruginosa GIM 1.551; GIM 1.551, 18 h) [µg/mL] |
| --- | --- | --- | --- | --- | --- | --- | --- | --- | --- | --- | --- | --- | --- | --- | --- |
| CC1(C)S[C@@H]2[C@H](NC(=O)Cc3ccccc3)C(=O)N2[C@H]1C(=O)O [Benzylpenicillin potassium] | <0.25 | 64 | 16 | 64 | a complete alveolar structure, reduced blood stasis, and large reduction in inflammatory cells | lower scores than PMAP-36PW group (P < 0.05) | reduced; also recorded: lower than that for PMAP-36PW group (P < 0.05) | the liver cells of mice were neatly arranged with clear cell boundaries and no pathological changes in spleen tissues | significantly lower than PBS group (P < 0.01) | significantly decreased compared with that of PMAP-36PW group (P < 0.05) | displayed significant difference (P < 0.01); also recorded: lower than those for PMAP-36PW group (P < 0.05) | – | – | – | – |
| CCCCCCCCCCCCCC(=O)NCC(=O)NCC(=O)N[C@@H](CCCNC(=N)N)C(=O)N[C@@H](Cc1ccccc1)C(=O)N[C@@H](CCCNC(=N)N)C(=O)N[C@@H](CCCNC(=N)N)C(=O)N[C@@H](CC(C)C)C(=O)N[C@@H](CCCNC(=N)N)C(=O)N[C@@H](CCCCN)C(=O)N[C@@H](CCCCN)C(=O)N[C@H](C(=O)N[C@@H](CCCNC(=N)N)C(=O)N[C@@H](CCCCN)C(=O)N[C@@H](CCCNC(=N)N)C(=O)N[C@@H](CC(C)C)C(=O)N[C@@H](CCCCN)C(=O)N[C@@H](CCCCN)C(=O)N[C@H](C(=O)NCC(=O)N[C@@H](CCCCN)C(=O)N[C@H](C(=O)N[C@@H](CC(C)C)C(=O)N[C@@H](CCCCN)C(=O)N[C@@H](Cc1c[nH]c2ccccc12)C(=O)N[C@H](C(=O)N[C@@H](Cc1c[nH]c2ccccc12)C(=O)N[C@@H](Cc1c[nH]c2ccccc12)C(=O)N[C@H](C(=O)N[C@H](C(=O)NCC(=O)N[C@@H](CO)C(=O)N[C@H](C(=O)N1CCC[C@H]1C(=O)N[C@@H](CC(C)C)C(=O)NCC(=O)N[C@@H](CS)C(=O)NCC(=O)O)[C@@H](C)CC)C(C)C)[C@@H](C)CC)[C@@H](C)CC)C(C)C)[C@@H](C)CC)[C@@H](C)O [Myr-36PW] (Myristoyl-GGRFRRLRKKTRKRLKKIGKVLKWIWWIVGSIPLGCG-OH; C-terminus assumed) | – | – | – | – | a complete alveolar structure, reduced blood stasis, and large reduction in inflammatory cells | lower scores than PMAP-36PW group (P < 0.05) | reduced; also recorded: lower than that for PMAP-36PW group (P < 0.05) | the liver cells of mice were neatly arranged with clear cell boundaries and no pathological changes in spleen tissues | significantly lower than PBS group (P < 0.01) | significantly decreased compared with that of PMAP-36PW group (P < 0.05) | displayed significant difference (P < 0.01); also recorded: lower than those for PMAP-36PW group (P < 0.05) | 0.0020 | 0.5 | 8 | 0.25 |
